Results: publication PMC3390344, “Antibacterial Activity and Mechanism of a Scorpion Venom Peptide Derivative In Vitro and In Vivo” (PLoS ONE, 2012)
In brackets after ≈: the same amount, converted by molar mass. Read-outs that look alike come from different tables or passages of the source.

Tests used:
Format in all cases: cell-based
[1] = system: methicillin-resistant coagulase-negative Staphylococcus (MRCNS) P1369; test: microbe, parasite or virus in culture; settings: Staphylococcus
Procedure: (§1) The MIC was determined via a microdilution assay in 96-well microtiter plates according to the broth microdilution guideline of Clinical and Laboratory Standards Institute (CLSI).

[2] = system: penicillin-resistant S. epidermidis (PRSE) P1389; test: microbe, parasite or virus in culture
Procedure: (§2) Clinical isolates were obtained from the 302nd military hospital of Beijing, China, including penicillin-resistant S. aureus (PRSA) P1383, penicillin-resistant S. epidermidis (PRSE) P1389, methicillin-resistant S. aureus (MRSA) P1381, P1386 and P1374, methicillin-resistant coagulase-negative Staphylococcus (MRCNS) P1369, and penicillin-sensitive S. epidermidis (PSSE) P1111.
as §1

[3] = system: methicillin-resistant S. aureus (MRSA) P1381; test: microbe, parasite or virus in culture
Procedure: as §2, §1

[4] = system: penicillin-resistant S. aureus (PRSA) P1383; test: microbe, parasite or virus in culture
Procedure: as §2, §1

[5] = system: methicillin-resistant S. aureus (MRSA) P1386; test: microbe, parasite or virus in culture
Procedure: as §2, §1

[6] = system: penicillin-sensitive S. epidermidis (PSSE) P1111; test: microbe, parasite or virus in culture
Procedure: as §2, §1

[7] = system: methicillin-resistant S. aureus (MRSA) P1374; test: microbe, parasite or virus in culture
Procedure: as §2, §1

S. aureus AB94004 = test: Enzyme release assay (catalase); settings: S. aureus AB94004, 37°C; 0.9% saline negative control; Figure 4C
Procedure: (§3) Figure 4 Secondary structure and enzyme release assay of Kn2-7. (A) and (B) Secondary structure analysis of the Kn2-7 and BmKn2 peptides. (A) Circular dichroism spectra of 0.1 mg/mL of Kn2-7 in water, 30% TFE/H2O or 70% TFE/H2O. (B) Circular dichroism spectra of 0.1 mg/mL of BmKn2 in water, 30% TFE/H2O or 70% TFE/H2O. (C) and (D) Enzyme release assay. (C) S. aureus AB94004 treated with Kn2-7 or BmKn2 was harvested, and the catalase activities of the supernatants were measured; 0.9% saline was used as the negative control, and ampicillin sodium was used as the antibiotic control. (D) E. coli AB94012 treated with Kn2-7 or BmKn2 was harvested, and the catalase activities in the supernatants were measured; 0.9% saline was used as the negative control, and kanamycin was used as the antibiotic control.
(§4) Bacterial suspensions and serial-diluted peptides were mixed at a ratio of 4∶1 in different tubes with a final volume of 2 ml. The mixtures were then incubated at 37°C with continuous shaking. At each time point, 200 µl of the treated bacterial suspension was transferred to sterilized tubes. After centrifugation, the supernatants were transferred to a sterilized 1.5-ml tube, and catalase activity was measured with a Catalase Assay Kit (Beyotime, Jiangsu, China) using the method for measuring peroxidase activity.

E. coli AB94012 [8] = test: Growth inhibitory assay (growth curves); settings: at a concentration of 6.25 µg/mL; Figure 2C
Procedure: Figure 2 Gowth inhibitory activities of Kn2-7. (A) Growth curves of S. aureus AB94004 treated with Kn2-7, BmKn2 or antibiotics. (B) Growth curves of MRSA P1386 treated with Kn2-7, BmKn2 or antibiotics. (C) Growth curves of E. coli AB94012 treated with Kn2-7, BmKn2 or antibiotics.
The time growth curves of S. aureus and MRSA treated with BmKn2 or its derivatives were determined based on measurements taken at 630 nm at each time point. Different concentrations of peptide were added to the tested strains, which were cultured in 96-well plates using the same method as was used for determining the MIC.

E. coli AB94012 [9] = test: Enzyme release assay (catalase); settings: E. coli AB94012, 37°C; 0.9% saline negative control; Figure 4D
Procedure: as §3, §4

[10] = Staphylococcus epidermidis, read-out: MIC

Compound	MIC [1] [µg/mL]	MIC ([2]; Staphylococcus epidermidis) [µg/mL]	MIC ([3]; Staphylococcus aureus, MRSA) [µg/mL]	MIC ([4]; Staphylococcus aureus) [µg/mL]	MIC ([5]; Staphylococcus aureus, MRSA) [µg/mL]	MIC [6, 10] [µg/mL]	MIC ([7]; Staphylococcus aureus, MRSA) [µg/mL]	also measured
CO/N=C(\C(=O)N[C@@H]1C(=O)N2C(C(=O)O)=C(COC(C)=O)CS[C@H]12)c1csc(N)n1 [Cefotaxime]	400 (≈ 878 µM)	3.13 (≈ 6.87 µM)	400 (≈ 878 µM)	6.25 (≈ 13.7 µM)	100 (≈ 220 µM)	6.25 (≈ 13.7 µM)	400 (≈ 878 µM)	
CN[C@H](CC(C)C)C(=O)N[C@H]1C(=O)N[C@@H](CC(N)=O)C(=O)N[C@H]2C(=O)N[C@H]3C(=O)N[C@H](C(=O)N[C@H](C(=O)O)c4cc(O)cc(O)c4-c4cc3ccc4O)[C@H](O)c3ccc(c(Cl)c3)Oc3cc2cc(c3O[C@@H]2O[C@H](CO)[C@@H](O)[C@H](O)[C@H]2O[C@H]2C[C@](C)(N)[C@H](O)[C@H](C)O2)Oc2ccc(cc2Cl)[C@H]1O [Vancomycin]	6.25 (≈ 4.31 µM)	6.25 (≈ 4.31 µM)	3.13 (≈ 2.16 µM)	6.25 (≈ 4.31 µM)	3.13 (≈ 2.16 µM)	3.13 (≈ 2.16 µM)	6.25 (≈ 4.31 µM)	
CC1(C)S[C@@H]2[C@H](NC(=O)[C@H](N)c3ccccc3)C(=O)N2[C@H]1C(=O)O [ampicillin, reference compound]								Catalase activity of the supernatant over time (S. aureus AB94004): increasing catalase activity over time
NC[C@H]1O[C@H](O[C@H]2[C@H](O)[C@@H](O[C@H]3O[C@H](CO)[C@@H](O)[C@H](N)[C@H]3O)[C@H](N)C[C@@H]2N)[C@H](O)[C@@H](O)[C@@H]1O [kanamycin, reference compound]								Growth inhibition of E. coli AB94012 (growth curve) (E. coli AB94012 [8]): inhibited the growth of E. coli AB94012; Catalase activity of the supernatant over time (E. coli AB94012 [9]): increasing catalase activity over time
Penicillin								MIC ([2]; P1389, penicillin resistant (PRSE) clinical isolate, repeated at least three times): 10000 µg/mL; MIC ([3]; P1381, methicillin resistant (MRSA) clinical isolate, repeated at least three times): 5000 µg/mL; MIC ([4]; P1383, penicillin resistant (PRSA) clinical isolate, repeated at least three times): 10000 µg/mL; MIC ([5]; P1386, methicillin resistant (MRSA) clinical isolate, repeated at least three times): 10000 µg/mL; MIC ([6]; P1111, penicillin sensitive (PSSE) clinical isolate, repeated at least three times): 25 µg/mL; MIC ([7]; P1374, methicillin resistant (MRSA) clinical isolate, repeated at least three times): 5000 µg/mL
